Experimental data: patent US10544104B2, “Compositions and methods for treating toxoplasmosis, cryptosporidiosis, and other apicomplexan protozoan related diseases” (University of Washington through its Center for …, priority 2010, dated 2020)
Blank lines part the entries; values can stand above or below the compound they belong to.

What was measured:
TgCDPK1 = TgCDPK1 (Toxoplasma gondii, UniProt Q9BJF5); assay type: biochemical
in vitro [1] = details: human, SF539 glioma-derived cells
in vitro [2] = details: human, CRL8155 human lymphocyte cells
in vitro [3] = details: human, HL-60 human promyelocytic leukemia cells
in vitro [4] = details: human, HCC2998 (HC 2998) colorectal carcinoma cells
P. falciparum = assay: microbe, parasite or virus in culture; details: Plasmodium falciparum, read-out: Proliferation Blocking P. falciparum (EC50, μM)
human fibroblast = assay: Fibroblast cytotoxicity / replication (Alamar blue); assay type: cell-based; details: concentration at which toxicity (T) was observed

Sequence of TgCDPK1 (Q9BJF5 1-507): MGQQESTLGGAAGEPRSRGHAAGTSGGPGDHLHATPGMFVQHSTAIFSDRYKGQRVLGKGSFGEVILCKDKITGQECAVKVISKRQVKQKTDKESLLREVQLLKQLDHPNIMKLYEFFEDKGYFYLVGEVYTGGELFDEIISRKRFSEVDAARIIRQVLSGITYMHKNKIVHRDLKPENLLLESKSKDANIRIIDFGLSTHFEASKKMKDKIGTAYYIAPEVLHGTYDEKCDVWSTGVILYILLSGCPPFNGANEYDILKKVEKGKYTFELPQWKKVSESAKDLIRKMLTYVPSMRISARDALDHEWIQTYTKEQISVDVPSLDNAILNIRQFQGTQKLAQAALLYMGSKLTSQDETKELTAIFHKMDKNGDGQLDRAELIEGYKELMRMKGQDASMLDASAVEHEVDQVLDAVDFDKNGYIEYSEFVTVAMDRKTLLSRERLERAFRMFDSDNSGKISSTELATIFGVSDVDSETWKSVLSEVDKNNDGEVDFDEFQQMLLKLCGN

Compound: [Ca+2].[Cl-].[Cl-] [CaCl2]
free CaCl2 at maximal activity (TgCDPK1): approximately 18 μM

Compound: C#CCn1nc(Cc2cccc3ccccc23)c2c(N)ncnc21 [Compound 5b, 3-(naphthalen-1-ylmethyl)-1-(prop-2-ynyl)-1H-pyrazolo[3,4-d]pyrimidin-4-amine]
IC50 (TgCDPK1): 0.99 µM

GI50 (in vitro [1]): > 10 µM
GI50 (in vitro [2]): > 10 µM
GI50 (in vitro [3]): > 10 µM
GI50 (in vitro [4]): > 10 µM
Compound: CC(C)(C)n1nc(Cc2cccc3ccccc23)c2c(N)ncnc21 [Compound 5d, 1-tert-butyl-3-(naphthalen-1-ylmethyl)-1H-pyrazolo[3,4-d]pyrimidin-4-amine]

GI50 (in vitro [1]): > 10 µM
GI50 (in vitro [2]): > 10 µM
GI50 (in vitro [3]): > 10 µM
GI50 (in vitro [4]): > 10 µM
Compound: Nc1ncnc2c1c(Cc1cccc3ccccc13)nn2CC1CCNCC1 [Compound 5h, 3-(naphthalen-1-ylmethyl)-1-(piperidin-4-ylmethyl)-1H-pyrazolo[3,4-d]pyrimidin-4-amine]

Compound: CC(C)n1nc(-c2ccc(Cl)cc2)c2c(N)ncnc21 [Compound 7a, 3-(4-chlorophenyl)-1-isopropyl-1H-pyrazolo[3,4-d]pyrimidin-4-amine]
selectivity TgCDPK1 versus CpCDPK1 (in words) (TgCDPK1): more potent against TgCDPK1 than CpCDPK1

Compound: CSc1cccc(-c2nn(C(C)C)c3ncnc(N)c23)c1 [Compound 7ab, 1-isopropyl-3-(3-(methylthio)phenyl)-1H-pyrazolo[3,4-d]pyrimidin-4-amine]
selectivity TgCDPK1 versus CpCDPK1 (in words) (TgCDPK1): more potent against TgCDPK1 than CpCDPK1

Compound: CC(C)n1nc(-c2cccc(Cl)c2)c2c(N)ncnc21 [Compound 7b, 3-(3-chlorophenyl)-1-isopropyl-1H-pyrazolo[3,4-d]pyrimidin-4-amine]
selectivity TgCDPK1 versus CpCDPK1 (in words) (TgCDPK1): more potent against TgCDPK1 than CpCDPK1

Compound: CC(C)n1nc(-c2ccc(Cl)c(Cl)c2)c2c(N)ncnc21 [Compound 7c, 3-(3,4-dichlorophenyl)-1-isopropyl-1H-pyrazolo[3,4-d]pyrimidin-4-amine]
inhibition of TgCDPK1 (in words) (TgCDPK1): potent against both enzymes

Compound: CC(C)c1ccc(-c2nn(C(C)C)c3ncnc(N)c23)cc1 [Compound 7d, 1-isopropyl-3-(4-isopropylphenyl)-1H-pyrazolo[3,4-d]pyrimidin-4-amine]
selectivity TgCDPK1 versus CpCDPK1 (in words) (TgCDPK1): more potent against TgCDPK1 than CpCDPK1

Compound: Cc1cc(-c2nn(C(C)C)c3ncnc(N)c23)ccc1F [Compound 7i, 3-(4-fluoro-3-methylphenyl)-1-isopropyl-1H-pyrazolo[3,4-d]pyrimidin-4-amine]
inhibition of TgCDPK1 (in words) (TgCDPK1): potent against both enzymes

Compound: COc1ccc(-c2nn(C(C)C)c3ncnc(N)c23)cc1OC [Compound 7k, 3-(3,4-dimethoxyphenyl)-1-isopropyl-1H-pyrazolo[3,4-d]pyrimidin-4-amine]
inhibition of TgCDPK1 (in words) (TgCDPK1): potent against both enzymes

Compound: COc1cc(-c2nn(C(C)C)c3ncnc(N)c23)cc(OC)c1OC [Compound 7l, 1-isopropyl-3-(3,4,5-trimethoxyphenyl)-1H-pyrazolo[3,4-d]pyrimidin-4-amine]
selectivity TgCDPK1 versus CpCDPK1 (in words) (TgCDPK1): equipotent or slightly selective for CpCDPK1

Compound: COc1ccc(-c2nn(C(C)C)c3ncnc(N)c23)cc1C [Compound 7m, 1-isopropyl-3-(4-methoxy-3-methylphenyl)-1H-pyrazolo[3,4-d]pyrimidin-4-amine]
inhibition of TgCDPK1 (in words) (TgCDPK1): potent against both enzymes

GI50 (in vitro [1]): > 10 µM
GI50 (in vitro [2]): > 10 µM
GI50 (in vitro [3]): > 10 µM
GI50 (in vitro [4]): ~10 µM
Compound: CC(C)n1nc(-c2ccc3ccccc3c2)c2c(N)ncnc21 [Compound 7p, 1-isopropyl-3-(naphthalen-2-yl)-1H-pyrazolo[3,4-d]pyrimidin-4-amine]

GI50 (in vitro [1]): > 10 µM
GI50 (in vitro [2]): > 10 µM
GI50 (in vitro [3]): > 10 µM
GI50 (in vitro [4]): > 10 µM
Compound: COc1ccc2cc(-c3nn(C(C)C)c4ncnc(N)c34)ccc2c1 [Compound 7q, 1-isopropyl-3-(6-methoxynaphthalen-2-yl)-1H-pyrazolo[3,4-d]pyrimidin-4-amine]
EC50 (P. falciparum): > 10 µM

Compound: CCOc1ccc2cc(-c3nn(C(C)C)c4ncnc(N)c34)ccc2c1 [Compound 7r, 3-(6-ethoxynaphthalen-2-yl)-1-isopropyl-1H-pyrazolo[3,4-d]pyrimidin-4-amine]
EC50 (P. falciparum): > 50 µM

Compound: CCCOc1ccc2cc(-c3nn(CC4CCNCC4)c4ncnc(N)c34)ccc2c1 [Compound 33, 1-(piperidin-4-ylmethyl)-3-(6-propoxynaphthalen-2-yl)-1H-pyrazolo[3,4-d]pyrimidin-4-amine]
Observed HFF Toxicity (T at concentration) (human fibroblast): T at 100 μM

Compound: Nc1ncnc2c1c(-c1ccc3cc(OCc4ccccc4)ccc3c1)nn2CC1CCNCC1 [Compound 34, 3-(6-(benzyloxy)naphthalen-2-yl)-1-(piperidin-4-ylmethyl)-1H-pyrazolo[3,4-d]pyrimidin-4-amine]
Observed HFF Toxicity (T at concentration) (human fibroblast): T at 100 μM

Compound: C=CCOc1ccc2cc(-c3nn(CC4CCNCC4)c4ncnc(N)c34)ccc2c1 [Compound 36, 3-(6-(allyloxy)naphthalen-2-yl)-1-(piperidin-4-ylmethyl)-1H-pyrazolo[3,4-d]pyrimidin-4-amine]
Observed HFF Toxicity (T at concentration) (human fibroblast): T at 100 μM

Compound: Nc1ncnc2c1c(-c1ccc3cc(OCc4ccccc4Cl)ccc3c1)nn2CC1CCNCC1 [Compound 37, 3-(6-(2-chlorobenzyloxy)naphthalen-2-yl)-1-(piperidin-4-ylmethyl)-1H-pyrazolo[3,4-d]pyrimidin-4-amine]
Observed HFF Toxicity (T at concentration) (human fibroblast): T at 100 μM

Compound: Nc1ncnc2c1c(-c1ccc3cc(OCc4cccc(Cl)c4)ccc3c1)nn2CC1CCNCC1 [Compound 38, 3-(6-(3-chlorobenzyloxy)naphthalen-2-yl)-1-(piperidin-4-ylmethyl)-1H-pyrazolo[3,4-d]pyrimidin-4-amine]
Observed HFF Toxicity (T at concentration) (human fibroblast): T at 100 μM

Compound: CC(C)n1nc(-c2ccc3cc(OCc4ccccc4)ccc3c2)c2c(N)ncnc21 [Compound 40, 3-(6-(benzyloxy)naphthalen-2-yl)-1-isopropyl-1H-pyrazolo[3,4-d]pyrimidin-4-amine]
Observed HFF Toxicity (T at concentration) (human fibroblast): T at 100 μM

Compound: C=CCOc1ccc2cc(-c3nn(C(C)C)c4ncnc(N)c34)ccc2c1 [Compound 41, 3-(6-(allyloxy)naphthalen-2-yl)-1-isopropyl-1H-pyrazolo[3,4-d]pyrimidin-4-amine]
Observed HFF Toxicity (T at concentration) (human fibroblast): T at 100 μM

Compound: CCCCOc1ccc2cc(-c3nn(C(C)C)c4ncnc(N)c34)ccc2c1 [Compound 42, 3-(6-butoxynaphthalen-2-yl)-1-isopropyl-1H-pyrazolo[3,4-d]pyrimidin-4-amine]
Observed HFF Toxicity (T at concentration) (human fibroblast): T at 100 μM

Compound: CC(C)COc1ccc2cc(-c3nn(CC4CCNCC4)c4ncnc(N)c34)ccc2c1 [Compound 44, 3-(6-isobutoxynaphthalen-2-yl)-1-(piperidin-4-ylmethyl)-1H-pyrazolo[3,4-d]pyrimidin-4-amine]
Observed HFF Toxicity (T at concentration) (human fibroblast): T at 100 μM

Compound: CC(C)(C)C(=O)Nc1ccc(-c2nn(C(C)(C)C)c3ncnc(N)c23)cc1 [Compound 60, N-(4-(4-amino-1-tert-butyl-1H-pyrazolo[3,4-d]pyrimidin-3-yl)phenyl)pivalamide]
EC50 (P. falciparum): > 10 µM

Compound: CCCC(=O)Nc1ccc(-c2nn(C(C)(C)C)c3ncnc(N)c23)cc1 [Compound 61, N-(4-(4-amino-1-tert-butyl-1H-pyrazolo[3,4-d]pyrimidin-3-yl)phenyl)butyramide]
EC50 (P. falciparum): 7 µM

Compound: CC(C)CC(=O)Nc1ccc(-c2nn(C(C)(C)C)c3ncnc(N)c23)cc1 [Compound 62, N-(4-(4-amino-1-tert-butyl-1H-pyrazolo[3,4-d]pyrimidin-3-yl)phenyl)-3-methylbutanamide]
EC50 (P. falciparum): > 10 µM

Compound: CC(C)(C)n1nc(-c2ccc(NC(=O)C3CCCC3)cc2)c2c(N)ncnc21 [Compound 63, N-(4-(4-amino-1-tert-butyl-1H-pyrazolo[3,4-d]pyrimidin-3-yl)phenyl)cyclopentanecarboxamide]
EC50 (P. falciparum): > 10 µM

Compound: CCOc1ccc2cc(-c3nc(C(C)(C)C)n4ccnc(N)c34)ccc2c1 [Compound 69, 3-tert-butyl-1-(6-ethoxynaphthalen-2-yl)imidazo[1,5-a]pyrazin-8-amine]
Observed HFF Toxicity (T at concentration) (human fibroblast): T at 25 μM

Compound: Nc1ncnc2c1c(-c1ccc3oc(-c4ccccc4)nc3c1)nn2CC1CCNCC1 [Compound 120]
Observed HFF Toxicity (T at concentration) (human fibroblast): T at 25 μM

Compound: [Ca+2] [calcium]
EC50 (TgCDPK1; read-out: calcium concentration giving 50% of TgCDPK1 kinase activity): 4.7 µM
